Consider three compounds from article PMC11284088, “Synthesis and biochemical characterization of naphthoquinone derivatives targeting bacterial histidine kinases” (The Journal of Antibiotics, 2024).

Test [1] deals with T1, WalK (207-611, B. subtilis) (Bacillus subtilis, UniProt Q45614).
T1 construct: His6 (N); made in house; host or cells: E. coli BL21(DE3)
Put plainly: Affinity selection/mass spectrometry, competition with waldiomycin. Set-up: key to AS/MS: AS/MS + competitive inhibition of the binding of waldiomycin to WalK; − increased binding of waldiomycin to WalK. The conditions noted are these: for AS/MS: summary class, effect on binding of waldiomycin to WalK. Type of test: binding. How it is done: The affinity selection/mass spectrometry (AS/MS) is a method which can detect the binding of small compounds to proteins. This experiment was carried out following a previously established protocol (Fig. 5), with the exception of using Millipore 96-well filter plates (MSBVN1210) instead of MAHAN4510. In the experiment, 1 µM of WalK (207-611, B. subtilis, refer to Table S2) was combined and incubated with 5 µM of waldiomycin and competitor compounds in a reaction buffer. The buffer composition was as follows: 25 mM Tris-HCl (pH 8.0), 50 mM KCl, 50 mM NH4Cl, 5 mM MgCl2, 1 mM DTT, and 0.1% CHAPS. Following the incubation, the mixture was subjected to size-exclusion chromatography via centrifugation to eliminate free compounds. The protein that was eluted was then denatured by adding an equal volume of methanol/0.1% formic acid. The compounds that were subsequently released from the protein were detected using an LC/MS system. The concentrations of waldiomycin were calculated from the value of peak areas using calibration curve that covered the range of 1 nM to 1 µM (R^2 = 0.9991). The concentration of waldiomycin in the eluate of WalK and waldiomycin without competitor was 10.1 nM, and percentages to this value were calculated for other samples.

Test [2] deals with T2, WalK (Bacillus subtilis, UniProt Q45614).
T2 construct: His6 (N); made in house; host or cells: E. coli BL21(DE3)
T2 sequence (Q45614 207-611): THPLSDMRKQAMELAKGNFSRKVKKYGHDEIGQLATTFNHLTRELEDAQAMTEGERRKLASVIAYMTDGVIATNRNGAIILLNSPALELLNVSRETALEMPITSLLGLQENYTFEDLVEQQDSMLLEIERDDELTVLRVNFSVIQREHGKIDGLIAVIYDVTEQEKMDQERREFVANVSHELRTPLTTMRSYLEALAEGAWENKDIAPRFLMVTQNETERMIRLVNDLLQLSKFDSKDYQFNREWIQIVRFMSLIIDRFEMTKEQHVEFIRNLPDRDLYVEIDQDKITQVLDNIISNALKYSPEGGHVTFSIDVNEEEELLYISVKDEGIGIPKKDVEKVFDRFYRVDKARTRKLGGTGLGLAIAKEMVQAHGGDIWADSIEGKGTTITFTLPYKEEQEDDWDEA
As to the kind of experiment: Inhibition of WalK autophosphorylation. Particulars: for pIC50: against WalK from B. subtilis, autophosphorylation, N.I. = no inhibition, read-out: IC50; for WalK: summary class. Type of test: biochemical. On the set-up: key to WalK: WalK + inhibitory effect against WalK. The protocol: (§1) Autophosphorylation of WalK was conducted at 0.5 or 1 µM in a reaction mixture comprising 50 mM Tris-HCl (pH 8.5), 100 mM KCl, 5 mM MgCl2, 100 mM NH4Cl, 5% DMSO, and 40 µM ATP. The total reaction volume was 40 µl, and the incubation lasted for 30 min at 25 °C. To terminate the reaction, 40 µl of 2 × SDS-PAGE sample buffer was added, followed by a 10-min incubation at 37 °C. Subsequently, SDS-PAGE (10% acrylamide) was performed, and the samples were subjected to Western blotting using a PVDF membrane (Bio-Rad 1620177). The primary antibody used was anti-N3-phosphohistidine antibody (clone SC56-2) (EDM Millipore Corp), and the secondary antibody was goat anti-rabbit IgG-HRP (Abcam). A 2% bovine serum albumin (Sigma-Aldrich) solution served as the blocking reagent. Signals originating from phosphorylated HKs were detected using the HRP substrate (Immobilon Western Chemiluminescent HRP substrate, Millipore) and the Multi Imager II Multi Box (Bio Tools). Signal intensities were quantified with Image Analysis Software CS Analyzer 4 (ATTO). IC50 values (50% inhibitory concentrations) were determined using Prism 7 software (GraphPad).
(§2) In the assessment of naphthoquinone derivatives, the initial screening for inhibitory activity against WalK autophosphorylation was conducted at 50 or 100 µg ml^−1. Compounds displaying inhibitory activity were further examined to ascertain their IC50 values against WalK. For the chosen compounds, inhibition against EvgS, EnvZ, PhoQ, and CpxA HKs was also assessed. These reactions involved the use of 1 µM HK, 40 µM ATP, and a 30 min incubation at 25 °C.

The subject of test [3] is iseA (formerly yoeB). As to the kind of experiment: RT-qPCR of iseA expression in B. subtilis cells. Type of test: cell-based, B. subtilis 168. Set-up: key to RT-qPCR: RT-qPCR + iseA gene expression was induced in B. subtilis 168; − no effect. Particulars: for expression of iseA: exponentially growing cells, subMIC or MIC levels, 5 min, relative to DMSO control; for RT-qPCR: summary class, iseA gene expression in B. subtilis 168. How it is done: In brief, the cells were aerated and grown to an optical density at 660 nm of 0.3–0.4 at 37 °C. After the addition of DMSO or naphthoquinone derivatives, the cultures were further incubated for 5 min, cooled on ice for 1 min, and then harvested by centrifugation (2300 × g, 10 min, 4 °C). The cells were resuspended in 800 µl of RNA Lysis Buffer (SV Total RNA Isolation System, Z3100, Promega), transferred to a screw-capped tube containing 400 mg of glass beads (GB-01, TOMY), and disrupted using MicroSmash (MS-100, TOMY Medico) at 3000 rpm, 60 s ON/OFF for 6 cycles. RNA was then purified from 175 µl of the supernatant using the SV Total RNA Isolation System, followed by DNase I treatment (Turbo DNA-free^TM Kit, AM1907, Invitrogen) to remove any residual genomic DNA contamination. […] The expression levels of the genes were normalized using the 16S rRNA gene as an internal standard. Each assay was performed at least three times. Statistical analyses were conducted using Tukey’s multiple comparison test (GraphPad Prism 7).
A general note: Quantitative PCR measures a nucleic acid by following its amplification.

Test [4] has as its system B. subtilis 168 strain. As to the kind of experiment: MIC, standard microtiter broth dilution. Type of test: cell-based, Bacillus subtilis. On the set-up: key to MIC: MIC + antibacterial activity against Bacillus subtilis 168. The conditions noted are these: for antibacterial (antimicrobial) activity against B. subtilis: in words. How it is done: The minimum inhibitory concentrations (MICs) were determined using the standard microtiter broth dilution method, as recommended by the guidelines of the Clinical Laboratory Standards Institute.
A general note: Broth dilution looks for growth in wells or tubes with falling amounts of substance.

Another test has as its target T3, CpxA (Escherichia coli, UniProt P0AE82).
T3 construct: cytoplasmic regions of PhoQ (261-486) and CpxA (188-457); His6 (C); made in house; host or cells: E. coli BL21(DE3)
Put plainly: Inhibition of CpxA autophosphorylation. Type of test: biochemical, Escherichia coli K12. The protocol: as §1, with “The” for “Autophosphorylation of WalK was conducted at 0.5 or 1 µM in a reaction mixture comprising 50 mM Tris-HCl (pH 8.5), 100 mM KCl, 5 mM MgCl2, 100 mM NH4Cl, 5% DMSO, and 40 µM ATP. The”
In the assessment of naphthoquinone derivatives, the initial screening for inhibitory activity against WalK autophosphorylation was conducted at 50 or 100 µg ml^−1. Compounds displaying inhibitory activity were further examined to ascertain their IC50 values against WalK. For the chosen compounds, inhibition against EvgS, EnvZ, PhoQ, and CpxA HKs was also assessed. […]

The test system of test [5] is HKs (EvgS, EnvZ, PhoQ, and CpxA). As to the kind of experiment: Inhibition of class I HKs, summary over several HKs. Type of test: biochemical, Escherichia coli K12. On the set-up: key to HKs: HKs + inhibitory effect against HKs (EvgS, EnvZ, PhoQ, and CpxA). How it is done: as §1, §2
The target of the next test is T4, EvgS (559–1197) D1009A (Escherichia coli, UniProt P30855, D1009A).
T4 construct: EvgS (559–1197) D1009A; His6 (C); made in house; host or cells: E. coli BL21(DE3)
T4 sequence (P30855 559-1197 D1009A): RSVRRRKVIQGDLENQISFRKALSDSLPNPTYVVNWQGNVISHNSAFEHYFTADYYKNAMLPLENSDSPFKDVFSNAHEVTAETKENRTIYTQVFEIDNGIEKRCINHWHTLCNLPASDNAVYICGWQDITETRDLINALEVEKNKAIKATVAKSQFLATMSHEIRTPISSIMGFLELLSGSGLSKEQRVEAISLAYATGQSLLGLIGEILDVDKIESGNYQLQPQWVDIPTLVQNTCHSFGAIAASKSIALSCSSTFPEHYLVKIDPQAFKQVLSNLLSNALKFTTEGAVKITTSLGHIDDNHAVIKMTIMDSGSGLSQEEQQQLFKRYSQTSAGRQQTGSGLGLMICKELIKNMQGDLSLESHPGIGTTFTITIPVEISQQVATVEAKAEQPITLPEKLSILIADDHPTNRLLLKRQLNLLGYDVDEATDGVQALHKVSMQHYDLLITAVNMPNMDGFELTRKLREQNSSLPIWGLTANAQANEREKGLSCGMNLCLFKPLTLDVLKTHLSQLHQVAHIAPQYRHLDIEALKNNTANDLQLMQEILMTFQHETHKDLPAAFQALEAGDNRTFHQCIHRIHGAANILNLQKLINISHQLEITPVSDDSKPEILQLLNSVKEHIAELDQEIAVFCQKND
As to the kind of experiment: Inhibition of EvgS autophosphorylation. Type of test: biochemical, Escherichia coli K12. The protocol:
as §1, §2

The next test addresses T5, EnvZ (Escherichia coli, UniProt P0AEJ4).
T5 construct: pETEcEnvZ(223-450); His6 (C); made in house; host or cells: E. coli BL21(DE3)
Put plainly: Inhibition of EnvZ autophosphorylation. Type of test: biochemical, Escherichia coli K12. How it is done:
as §1, §2

The target of a further test is T6, PhoQ (Escherichia coli, UniProt P23837).
T6 construct: cytoplasmic regions of PhoQ (261-486) and CpxA (188-457); His6 (C); made in house; host or cells: E. coli BL21(DE3)
T6 sequence (P23837 261-486): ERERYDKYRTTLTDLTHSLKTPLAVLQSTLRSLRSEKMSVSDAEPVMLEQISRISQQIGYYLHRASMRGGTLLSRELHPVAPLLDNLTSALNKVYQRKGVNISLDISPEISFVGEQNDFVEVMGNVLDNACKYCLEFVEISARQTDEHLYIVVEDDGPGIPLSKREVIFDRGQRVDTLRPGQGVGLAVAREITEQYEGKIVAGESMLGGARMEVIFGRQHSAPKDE
Put plainly: Inhibition of PhoQ autophosphorylation. Type of test: biochemical, Escherichia coli K12. How it is done: as §1, §2

The test system of test [6] is iseA (formerly yoeB). Set-up: method as in PMID 27999439, PMID 28674376, PMID 26582287; key: RT-qPCR + iseA gene expression was induced in B. subtilis 168; − no effect. Particulars: summary class, iseA gene expression; cited from earlier work.
In test [7] the target is T2, WalK. Set-up: key: WalK + inhibitory effect against WalK. Particulars: summary class; cited from earlier work.
The subject of test [8] is HKs (EvgS, EnvZ, PhoQ, and CpxA). Set-up: key: HKs + inhibitory effect against HKs (EvgS, EnvZ, PhoQ, and CpxA). Particulars: summary class; cited from earlier work.
The subject of another test is class I HKs. On the set-up: method as in PMID 27999439. Particulars: including WalK, PhoQ, EnvZ, and CpxA; cited from earlier work.
Test [9] relates to B. subtilis 168 strain. On the set-up: method as in PMID 27999439, PMID 28674376, PMID 26582287; key: MIC + antibacterial activity against Bacillus subtilis 168. Particulars: Bacillus subtilis 168, cited from earlier work.
Setting [10] is: summary class, Bacillus subtilis 168.
Where [11] appears, read: Bacillus subtilis, B. subtilis 168 strain grown in LB broth at 37 °C for 18 h, read-out: MIC.

pIC50: −log10 of the molar value. “Also recorded” adds a separate entry of the source. Where two headings read alike, the source gives them in different places.

T1 sequence (Q45614 207-611): as the sequence (Q45614 207-611) above
T5 sequence (P0AEJ4 223-450): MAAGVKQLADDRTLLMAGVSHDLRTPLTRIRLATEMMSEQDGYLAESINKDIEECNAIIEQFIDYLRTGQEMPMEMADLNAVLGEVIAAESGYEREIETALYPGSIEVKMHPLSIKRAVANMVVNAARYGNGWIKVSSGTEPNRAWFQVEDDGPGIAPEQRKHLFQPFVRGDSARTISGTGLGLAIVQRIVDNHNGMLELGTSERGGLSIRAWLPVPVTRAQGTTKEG
T3 sequence (P0AE82 188-457): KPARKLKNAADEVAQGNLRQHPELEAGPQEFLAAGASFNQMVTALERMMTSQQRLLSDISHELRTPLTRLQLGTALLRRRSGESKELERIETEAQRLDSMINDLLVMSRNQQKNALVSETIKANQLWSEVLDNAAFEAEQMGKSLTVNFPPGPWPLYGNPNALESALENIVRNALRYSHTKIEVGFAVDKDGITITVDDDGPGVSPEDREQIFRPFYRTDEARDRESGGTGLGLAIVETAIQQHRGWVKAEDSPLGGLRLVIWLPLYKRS

By pIC50 is commonly meant −log10 of the IC50, conventionally taken in molar units. One may read the MIC as the lowest concentration that inhibits growth of the organism. Consider `O=C1C(N2CCNCC2)=CC(=O)c2c(O)cccc21` [2b, 5-hydroxy-2-(piperazin-1-yl)naphthalene-1,4-dione], for which the “increase of MS signal of the collected waldiomycin compared to only waldiomycin” value in [1] (compound 30 or 100 µM, waldiomycin 5 µM, WalK 1 µM) was “about twofold”. Further, in test [1] (in words), the “binding to WalK competitive with that of waldiomycin” value is “not competitive; also recorded: enhanced the binding of waldiomycin to WalK”. Further, the AS/MS result in test [1] is reported as “−”. At WalK [2], the pIC50 was 4.32 and the WalK entry is reported as “+”. Besides, in the test on iseA (formerly yoeB) [3], the “expression of iseA” value is recorded as “did not change” and the RT-qPCR entry was “−”. For the same compound, the MIC in the test with B. subtilis 168 strain [4] (B. subtilis 168 strain grown in LB broth at 37 °C for 18 h) turned out to be 8 µg/mL. For the same compound, the “antibacterial (antimicrobial) activity against B. subtilis” value with B. subtilis 168 strain [4] is reported as “equal to waldiomycin or even stronger”. For the same compound, in the test with B. subtilis 168 strain [4] (setting [10]), the MIC entry was “+”.

Turning to `Nc1cccc2c1C(=O)C(Cl)=C(Nc1ccc(O)c(C(=O)O)c1)C2=O` [2o, 5-((5-amino-3-chloro-1,4-dioxo-1,4-dihydronaphthalen-2-yl)amino)-2-hydroxybenzoic acid], the pIC50 was 6.10 at CpxA; 4.59 at WalK [2]; 6.70 against EvgS (559–1197) D1009A; 5.89 on EnvZ; 7.00 at PhoQ. For the same compound, in test [1] (compound 30 and 100 µM, in words), the “effect on the signal of waldiomycin” value is given as “reduced the signal of waldiomycin in a dose-dependent manner”. The “signal of waldiomycin compared to only waldiomycin with WalK” value in test [1] (compound at 100 µM, waldiomycin 5 µM, WalK 1 µM) is on record as “about 10%”. Moreover, in [1] (in words), the “binding to WalK competitive with that of waldiomycin” value is given as “competitive; also recorded: competitively interacted with waldiomycin”. Besides, the AS/MS result in [1] is listed as “+”. Further, the “inhibition of EvgS, EnvZ, PhoQ, and CpxA” value in test [5] (in words) was “inhibited all four of these HKs”. In addition, in test [5] (summary class, EvgS, EnvZ, PhoQ, and CpxA), the HKs entry was “+”. The “inhibitory activity against WalK” value on WalK [2] (in words) is “weaker”. The WalK result on WalK [2] is on record as “+”. The “expression of iseA” value in the test on iseA (formerly yoeB) [3] is reported as “did not change”. For the same compound, the RT-qPCR result with iseA (formerly yoeB) [3] is reported as “−”. For the same compound, the MIC in the test on B. subtilis 168 strain [4] (setting [11]) was 16 µg/mL; in the test on B. subtilis 168 strain [4] (setting [10]), “+”. For the same compound, in the test on B. subtilis 168 strain [4], the “antibacterial (antimicrobial) activity against B. subtilis” value is recorded as “weaker”.

For `C[C@@H]1O[C@](C)(C(=O)O)OC1/C=C/C=C/C=C/C(=O)O[C@H]1CC[C@H](c2ccc3c(c2O)C(=O)c2ccc4c(c2C3=O)C(=O)[C@@H](O)[C@](C)(O)C4)O[C@@H]1C` (some centres unmarked) [Waldiomycin, reference compound], the RT-qPCR entry with iseA (formerly yoeB) [6] is on record as “+”. Besides, the WalK result on WalK [7] was “+”. Further, the pIC50 against CpxA is 4.03; at WalK [2] it was 4.88; at EvgS (559–1197) D1009A, 4.18; against EnvZ, 4.48; at PhoQ, 4.96. Moreover, the “concentration of waldiomycin in the eluate of WalK and waldiomycin” value in [1] (without competitor, WalK 1 µM, waldiomycin 5 µM) is listed as 10.1 nM. In addition, the HKs result in [8] is recorded as “+”. Also, the “inhibition of class I HKs” value in the test on class I HKs is “inhibited 13 class I HKs”. Besides, the MIC with B. subtilis 168 strain [4] (setting [11]) was 8 µg/mL; with B. subtilis 168 strain [9] it was 8 µg/mL; in the test on B. subtilis 168 strain [9] (summary class) it was “+”.
